US6479515B1, “Heterocyclic benzenesulphonamide compounds as bradykinine antagonists” (Fournier Industrie et Sante, priority 1999, dated 2002)
Where a name gives a salt, the structure may show the parent alone. Read-outs that look alike come from different tables or passages of the source.

Tests used:
[1] = biological target: T1, human B2 receptor (Homo sapiens, UniProt P30411); test: competitive binding test on CHO cell membranes expressing the human B2 receptor using [3H]-bradykinin as ligand
T1 construct: expressed in transfected cells; host or cells: CHO cells (membranes)
T1 sequence (P30411 1-391): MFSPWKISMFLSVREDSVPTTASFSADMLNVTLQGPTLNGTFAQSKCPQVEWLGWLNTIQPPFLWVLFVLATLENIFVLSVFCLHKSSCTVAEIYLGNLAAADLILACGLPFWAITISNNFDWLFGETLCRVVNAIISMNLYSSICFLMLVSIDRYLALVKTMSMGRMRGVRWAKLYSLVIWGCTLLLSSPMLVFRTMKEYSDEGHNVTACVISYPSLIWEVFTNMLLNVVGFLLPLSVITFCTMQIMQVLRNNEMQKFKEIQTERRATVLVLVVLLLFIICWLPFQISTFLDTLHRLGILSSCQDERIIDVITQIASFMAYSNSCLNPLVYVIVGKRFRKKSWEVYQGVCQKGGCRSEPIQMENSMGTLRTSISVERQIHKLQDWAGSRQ
Procedure: The activity of the products according to the invention was evaluated, according to a first aspect, as a function of their aptitude to bind to the bradykinin B2 receptors. […] It is likewise known that bradykinin is amongst one of the most powerful algesic agents known. The mode of action of kinins and more particularly of bradykinin makes a coupling of the peptides to the two types of receptors called B1 and B2 respectively take place. The B2 receptor belongs to the large family of receptors with seven transmembrane domains coupled to the G proteins and seems to be more particularly involved in the field of the pathologies mentioned above. This is the reason why the products of the invention, which have the property of being able to bind to the B2 receptor, inhibit the binding of bradykinin and, consequently, suppress its harmful activity. The test employed in order to measure this property is a competitive binding test on CHO cell membranes expressing the human B2 receptor using bradykinin labelled with tritium ([^3H]-bradykinin) as ligand.
The results are expressed by the Ki value, as calculated according to the recommended method with the description of the test employed and described according to D. Pruneau et al., in Br. J. Pharmacol. 1998, 125 p 365-372.

[2] = biological target: T2, bradykinin B2 receptor (Homo sapiens, UniProt P30411); test: inhibition of the contraction of the isolated human umbilical vein in the presence of bradykinin; assay type: cell-based
T2 construct: from tissue; host or cells: isolated human umbilical vein
T2 sequence (P30411 1-391): T1 sequence (P30411 1-391)
Source text: This antagonist character is expressed by the value pA2, calculated according to a biological test employed in order to measure the inhibition of the contraction of the isolated human umbilical vein by the compounds according to the invention in the presence of bradykinin. The test procedure and the method of calculation of pA2 are described in the articles of D. Pruneau et al. published in Br. J. Pharmacol. 1998, 125, p 365-372 and J L. Paquet et al. Br. J. Pharmacol. 1999, 126 (in print).

[3] = isolated human umbilical vein, contraction in the presence of bradykinin
[4] = isolated human umbilical vein, contraction in the presence of bradykinin, read-out: pA2 (converted)

Kb [2, 4]	Compound	Ki [1]	pA2 [2, 3]	Kb [2]
	1-[[2,4-Dichloro-3-[[2(L)-[[4-(2-pyridinyl)-1-piperazinyl]carbonyl]-1-pyrrolidinyl]sulphonyl]-N-methyl-N-[3-[[3-(hydroxy)propyl]-(methyl)amino]propyl]-2(S)-pyrrolidinecarboxamide, methanesulphonate [Example 105]	7.7 nM	8.3	
	1-[[2,4-Dichloro-3-[[[4-(1H-imidazol-1-yl)-2-methyl-8-quinolinyl]oxy]methyl]-phenyl]sulphonyl]-N-[2-(4-morpholinyl)ethyl]-2(S)-pyrrolidinecarboxamide, hemisulphate [Example 48]	32 nM	8.5	
	1-[[2,4-Dichloro-3-[[[4-(1H-imidazol-1-yl)-2-methyl-8-quinolinyl]oxy]methyl]-phenyl]sulphonyl]-N-[3-(4-morpholinyl)propyl]-2(S)-pyrrolidinecarboxamide, hemisulphate [Example 50]	30 nM	8.3	
	1-[[2,4-Dichloro-3-[[[4-(1H-imidazol-1-yl)-2-methyl-8-quinolinyl]oxy]methyl]-phenyl]sulphonyl]-N-[3-(dimethylamino)propyl]-N-methyl-2(S)-pyrrolidine-carboxamide, hemisulphate [Example 61]	21 nM	8.1	
0.501 nM	Cc1cc(-n2ccnc2)c2cccc(OCc3c(Cl)ccc(S(=O)(=O)N4CCC[C@H]4C(=O)NCC4CCN(CCO)CC4)c3Cl)c2n1 [64 A]	0.034 nM		
0.1 nM	Cc1cc(-n2ccnc2)c2cccc(OCc3c(Cl)ccc(S(=O)(=O)N4CCC[C@H]4C(=O)NCCCNC(=O)c4ccc(C(=N)N)cc4)c3Cl)c2n1 [Example 4, N-[3-[[4-(Aminoiminomethyl)benzoyl]amino]propyl]-1-[[2,4-dichloro-3-[[[4-(1H-imidazol-1-yl)-2-methyl-8-quinolinyl]oxy]methyl]phenyl]sulphonyl]-2(S)-pyrrolidinecarboxamide, bis methanesulphonate]	0.24 nM		
	Cc1cc(-n2ccnc2)c2cccc(OCc3c(Cl)ccc(S(=O)(=O)N4CCC[C@H]4C(=O)NCC4CCNCC4)c3Cl)c2n1 [Example 10, 1-[[2,4-Dichloro-3-[[[4-(1H-imidazol-1-yl)-2-methyl-8-quinolinyl]oxy]methyl]-phenyl]sulphonyl]-N-(4-piperidinylmethyl)-2(S)-pyrrolidinecarboxamide, ditartrate]	1 nM		3.16 nM
	Cc1cc(-n2ccnc2)c2cccc(OCc3c(Cl)ccc(S(=O)(=O)N4CCC[C@H]4C(=O)NCC4CCN(CCOCCO)CC4)c3Cl)c2n1 [Example 12, 1-[[2,4-Dichloro-3-[[[4-(1H-imidazol-1-yl)-2-methyl-8-quinolinyl]oxy]methyl]-phenyl]sulphonyl]-N-[[1-[2-(2-hydroxyethoxy)ethyl]-4-piperidinyl]methyl]-2(S)-pyrrolidinecarboxamide, tartrate]	0.47 nM		2 nM
	Cc1cc(-n2ccnc2)c2cccc(OCc3c(Cl)ccc(S(=O)(=O)N4CCC[C@H]4C(=O)NCC4CCN(CCCO)CC4)c3Cl)c2n1 [Example 23, 1-[[2,4-Dichloro-3-[[[4-(1H-imidazol-1-yl)-2-methyl-8-quinolinyl]oxy]methyl]-phenyl]sulphonyl]-N-[[1-(3-hydroxypropyl)-4-piperidinyl]methyl]-2(S)-pyrrolidinecarboxamide, tartrate]	0.45 nM		0.794 nM
	Cc1cc(-n2cncn2)c2cccc(OCc3c(Cl)ccc(S(=O)(=O)N4CCC[C@H]4C(=O)NCC4CCN(CCCO)CC4)c3Cl)c2n1 [Example 30, 1-[[2,4-Dichloro-3-[[[2-methyl-4-(1H-1,2,4-triazol-1-yl)-8-quinolinyl]oxy]-methyl]phenyl]sulphonyl]-N-[[1-(3-hydroxypropyl)-4-piperidinyl]methyl]-2(S)-pyrrolidinecarboxamide, tartrate]	0.73 nM		2 nM
	Cc1cc(-n2ccnc2)c2cccc(OCc3c(Cl)ccc(S(=O)(=O)N4CCC[C@H]4C(=O)NCC4CCN(CCCCO)CC4)c3Cl)c2n1 [Example 32, 1-[[2,4-Dichloro-3-[[[4-(1H-imidazol-1-yl)-2-methyl-8-quinolinyl]oxy]methyl]-phenyl]sulphonyl]-N-[[1-(4-hydroxybutyl)-4-piperidinyl]methyl]-2(S)-pyrrolidinecarboxamide, tartrate]	1.4 nM		0.794 nM
5.01 nM	Cc1cc(-n2ccnc2)c2cccc(OCc3c(Cl)ccc(S(=O)(=O)N4C[C@H](O)C[C@H]4C(=O)NCC4CCNCC4)c3Cl)c2n1 [Example 42, 1-[[2,4-Dichloro-3-[[[4-(1H-imidazol-1-yl)-2-methyl-8-quinolinyl]oxy]methyl]-phenyl]sulphonyl]-4(R)-hydroxy-N-(4-piperidinemethyl)-2(S)-pyrrolidine-carboxamide, ditartrate]	77 nM		
	Cc1cc(-n2ccnc2)c2cccc(OCc3c(Cl)ccc(S(=O)(=O)N4CCC[C@H]4C(=O)N(C)CCN(C)C)c3Cl)c2n1 [Example 73, 1-[[2,4-Dichloro-3-[[[4-(1H-imidazol-1-yl)-2-methyl-8-quinolinyl]oxy]methyl]-phenyl]sulphonyl]-N-[2-(dimethylamino)ethyl]-N-methyl-2(S)-pyrrolidine-carboxamide, tartrate]	10 nM		3.98 nM
	Cc1cc(-n2ccnc2)c2cccc(OCc3c(Cl)ccc(S(=O)(=O)N4CCC[C@H]4C(=O)NCCN4CCCC4)c3Cl)c2n1 [Example 75, 1-[[2,4-Dichloro-3-[[[4-(1H-imidazol-1-yl)-2-methyl-8-quinolinyl]oxy]methyl]-phenyl]sulphonyl]-N-[2-(1-pyrrolidinyl)ethyl]-2(S)-pyrrolidinecarboxamide, tartrate]	2.8 nM		5.01 nM
	Cc1cc(-n2ccnc2)c2cccc(OCc3c(Cl)ccc(S(=O)(=O)N4CCC[C@H]4C(=O)NCCCN4CCCC4)c3Cl)c2n1 [Example 77, 1-[[2,4-Dichloro-3-[[[4-(1H-imidazol-1-yl)-2-methyl-8-quinolinyl]oxy]methyl]-phenyl]sulphonyl]-N-[3-(1-pyrrolidinyl)propyl]-2(S)-pyrrolidinecarboxamide, tartrate]	6.1 nM		2.51 nM
	Cc1cc(-n2cncn2)c2cccc(OCc3c(Cl)ccc(S(=O)(=O)N4CCC[C@H]4C(=O)NCCN(C)C)c3Cl)c2n1 [Example 83, 1-[[2,4-Dichloro-3-[[[2-methyl-4-(1H-1,2,4-triazol-1-yl)-8-quinolinyl]oxy]-methyl]phenyl]sulphonyl]-N-[2-(dimethylamino)ethyl]-2(S)-pyrrolidine-carboxamide, tartrate]	14 nM		12.6 nM
6.31 nM	Cc1cc(-n2cncn2)c2cccc(OCc3c(Cl)ccc(S(=O)(=O)N4CCC[C@H]4C(=O)NCCCN4CCCC4)c3Cl)c2n1 [Example 87, 1-[[2,4-Dichloro-3-[[[2-methyl-4-(1H-1,2,4-triazol-1-yl)-8-quinolinyl]oxy]-methyl]phenyl]sulphonyl]-N-[3-(1-pyrrolidinyl)propyl]-2(S)-pyrrolidine-carboxamide, methanesulphonate]	15 nM		
10 nM	Cc1cc(-n2ccnc2)c2cccc(OCc3c(Cl)ccc(S(=O)(=O)N4CCC[C@H]4C(=O)NCc4ccccn4)c3Cl)c2n1 [Example 89, 1-[[2,4-Dichloro-3-[[[4-(1H-imidazol-1-yl)-2-methyl-8-quinolinyl]oxy]methyl]-phenyl]sulphonyl]-N-[(2-pyridinyl)methyl]-2(S)-pyrrolidinecarboxamide, methanesulphonate]	55 nM		
3.98 nM	Cc1cc(-n2ccnc2)c2cccc(OCc3c(Cl)ccc(S(=O)(=O)N4CCC[C@H]4C(=O)N(C)CCN(C)CCCO)c3Cl)c2n1 [Example 101, 1-[[2,4-Dichloro-3-[[[4-(1H-imidazol-1-yl)-2-methyl-8-quinolinyl]oxy]methyl]-phenyl]sulphonyl]-N-methyl-N-[2-[[3-(hydroxy)propyl](methyl)amino]ethyl]-2(S)-pyrrolidinecarboxamide, methanesulphonate]	50 nM		
